Test results taken from PMC6352943, “Novel pyrazolo[3,4-d]pyrimidines: design, synthesis, anticancer activity, dual EGFR/ErbB2 receptor tyrosine kinases inhibitory activity, effects on cell cycle profile and caspase-3-mediated apoptosis” (Journal of Enzyme Inhibition and Medicinal Chemistry, 2019).

How the values were obtained:
Assay in all cases: NCI 60 cell line single dose screen (SRB)
Type in all cases: cell-based
HL-60(TB) = settings: Homo sapiens; HL-60(TB) (leukemia), single dose 10^−5 M, 48 h; read-out: Growth inhibition percentage
Experimental: (§1) Anticancer activity screening of the newly synthesised compounds was measured in vitro utilising 60 different human tumour cell lines provided by US National Cancer Institute according to previously reported standard procedure[27–29] as follows: Cells are inoculated into 96-well microtitre plates in 100 ml. After cell inoculation, the microtitre plates are incubated at 37 °C, 5% CO2, 95% air and 100% relative humidity for 24 h prior to addition of experimental compounds. After 24 h, two plates of each cell line are fixed in situ with TCA, to represent a measurement of the cell population for each cell line at the time of drug addition (Tz). Experimental compounds are solubilised in dimethyl sulphoxide at 400-fold the desired final maximum test concentration and stored frozen prior to use. At the time of compound addition, an aliquot of frozen concentrate is thawed and diluted to twice the desired final maximum test concentration with complete medium containing […] gentamicin. Aliquots of […] of the compounds dilutions are added to the appropriate microtitre wells already containing 100 ml of medium, resulting in the required final compound concentration. Following compound addition, the plates are incubated for an additional 48 h at 37 °C, 5% CO2, 95% air, and 100% relative humidity. For adherent cells, the assay is terminated by the addition of cold trichloroacetic acid (TCA). Cells are fixed in situ by the gentle addition of 50 ml of cold 50% (w/v) TCA (final concentration, 10% TCA) and incubated for 60 min at 4 °C. The supernatant is discarded, and the plates are washed five times with tap water and air-dried. Sulphorhodamine B (SRB) solution (100 ml) at 0.4% (w/v) in 1% acetic acid is added to each well, and plates are incubated for 10 min at room temperature. After staining, unbound dye is removed by washing five times with 1% acetic acid and the plates are air-dried. Bound stain is subsequently solubilised with 10 mM trizma base, and the absorbance is read on an automated plate reader at a wavelength of 515 nm. For suspension cells, the methodology is the same except that the assay is terminated by fixing settled cells at the bottom of the wells by gently adding 50 ml of 80% TCA (final concentration, 16% TCA). Using the absorbance measurements [time zero, (Tz), control growth, (C), and test growth in the presence of compound (Ti)], the percentage growth is calculated for each compound. Percentage growth inhibition is calculated as: [(Ti – Tz)/(C – Tz)] x 100 for concentrations for which Ti >/=Tz. [(Ti – Tz)/Tz] x 100 for concentrations for which Ti < Tz.

SF-268 = settings: Homo sapiens; SF-268 (CNS cancer), single dose 10^−5 M, 48 h; read-out: Growth inhibition percentage
Experimental: as §1

ACHN = settings: Homo sapiens; ACHN (renal cancer), single dose 10^−5 M, 48 h; read-out: Growth inhibition percentage
Experimental: as §1

OVCAR-3 = settings: Homo sapiens; OVCAR-3 (ovarian cancer), single dose 10^−5 M, 48 h; read-out: Growth inhibition percentage
Experimental: as §1

TK-10 = settings: Homo sapiens; TK-10 (renal cancer), single dose 10^−5 M, 48 h; read-out: Growth inhibition percentage
Experimental: as §1

NCI-H522 = settings: Homo sapiens; NCI-H522 (non-small cell lung cancer), single dose 10^−5 M, 48 h; read-out: Growth inhibition percentage
Experimental: as §1

A549/ATCC = settings: Homo sapiens; A549/ATCC (non-small cell lung cancer), single dose 10^−5 M, 48 h; read-out: Growth inhibition percentage
Experimental: as §1

NCI/ADR-RES = settings: Homo sapiens; NCI/ADR-RES (ovarian cancer), single dose 10^−5 M, 48 h; read-out: Growth inhibition percentage
Experimental: as §1

UACC-257 = settings: Homo sapiens; UACC-257 (melanoma), single dose 10^−5 M, 48 h; read-out: Growth inhibition percentage
Experimental: as §1

SK-MEL-2 = settings: Homo sapiens; SK-MEL-2 (melanoma), single dose 10^−5 M, 48 h; read-out: Growth inhibition percentage
Experimental: as §1

DU-145 = settings: Homo sapiens; DU-145 (prostate cancer), single dose 10^−5 M, 48 h; read-out: Growth inhibition percentage
Experimental: as §1

HOP-92 = settings: Homo sapiens; HOP-92 (non-small cell lung cancer), single dose 10^−5 M, 48 h; read-out: Growth inhibition percentage
Experimental: as §1

SK-MEL-28 = settings: Homo sapiens; SK-MEL-28 (melanoma), single dose 10^−5 M, 48 h; read-out: Growth inhibition percentage
Experimental: as §1

HCC-2998 = settings: Homo sapiens; HCC-2998 (colon cancer), single dose 10^−5 M, 48 h; read-out: Growth inhibition percentage
Experimental: as §1

SNB-75 = settings: Homo sapiens; SNB-75 (CNS cancer), single dose 10^−5 M, 48 h; read-out: Growth inhibition percentage
Experimental: as §1

CCRF-CEM = settings: Homo sapiens; CCRF-CEM (leukemia), single dose 10^−5 M, 48 h; read-out: Growth inhibition percentage
Experimental: as §1

IGROV1 = settings: Homo sapiens, IGROV-1; IGROV1 (ovarian cancer), single dose 10^−5 M, 48 h; read-out: Growth inhibition percentage
Experimental: as §1

HT29 = settings: Homo sapiens, HT-29; HT29 (colon cancer), single dose 10^−5 M, 48 h; read-out: Growth inhibition percentage
Experimental: as §1

K-562 = settings: Homo sapiens, K562; K-562 (leukemia), single dose 10^−5 M, 48 h; read-out: Growth inhibition percentage
Experimental: as §1

RPMI-8226 = settings: Homo sapiens; RPMI-8226 (leukemia), single dose 10^−5 M, 48 h; read-out: Growth inhibition percentage
Experimental: as §1

EKVX = settings: Homo sapiens; EKVX (non-small cell lung cancer), single dose 10^−5 M, 48 h; read-out: Growth inhibition percentage
Experimental: as §1

SMILES	inhibition at 10 µM (HL-60(TB)) [%]	inhibition at 10 µM (SF-268) [%]	inhibition at 10 µM (ACHN) [%]	inhibition at 10 µM (OVCAR-3) [%]	inhibition at 10 µM (TK-10) [%]	inhibition at 10 µM (NCI-H522) [%]	inhibition at 10 µM (A549/ATCC) [%]	inhibition at 10 µM (NCI/ADR-RES) [%]	inhibition at 10 µM (UACC-257) [%]	inhibition at 10 µM (SK-MEL-2) [%]	inhibition at 10 µM (DU-145) [%]	inhibition at 10 µM (HOP-92) [%]	inhibition at 10 µM (SK-MEL-28) [%]	inhibition at 10 µM (HCC-2998) [%]	inhibition at 10 µM (SNB-75) [%]	inhibition at 10 µM (CCRF-CEM) [%]	inhibition at 10 µM (IGROV1) [%]	inhibition at 10 µM (HT29) [%]	inhibition at 10 µM (K-562) [%]	inhibition at 10 µM (RPMI-8226) [%]	further results
Cc1nn(-c2ccc(F)cc2)c2nc[nH]c(=O)c12 [Compound 3, 1–(4-Fluorophenyl)-3-methyl-1H-pyrazolo[3,4-d]pyrimidin-4(5H)-one]	6.74	-1.71	-4.68	-5.82	-3.17	4.92	-2.93	-1.22	-8.15	-5.1	-6.51	10.3	-14.1	-2.16	0.29	-1.13	5.29	3.83	1.69	-10.2	inhibition at 10 µM (EKVX): 36.2%
Cc1nn(-c2ccc(F)cc2)c2ncnc(N)c12 [Compound 4, 1–(4-Fluorophenyl)-3-methyl-1H-pyrazolo[3,4-d]pyrimidin-4-amine]	7.87	3.71	0.98	-2.81	-4.14	6.49	-4.88	0.66	-14.2	1.74	-7.26	-1.54	-3.55	-2.52	8.18	-12.7	11.1	3.34	1.98	-17.5	inhibition at 10 µM (EKVX): 19.1%
Cc1nn(-c2ccc(F)cc2)c2nc(N)nc(N)c12 [Compound 5, 1–(4-Fluorophenyl)-3-methyl-1H-pyrazolo[3,4-d]pyrimidine-4,6-diamine]	8.85	-2.3	-3.79	-12.9	-13	2.08	-1.96	-3.45	-18.7	3.86	-9.51	1.64	-4.89	3.79	5.33	-16.8	6.71	-6.5	-11.9	-3.69	inhibition at 10 µM (EKVX): 6.25%
Cc1nn(-c2ccc(F)cc2)c2ncnc(Cl)c12 [Compound 6, 4-Chloro-1–(4-fluorophenyl)-3-methyl-1H-pyrazolo[3,4-d]pyrimidine]	14	-1.16	4.11	-8.39	-23	59	11.6	-8.11	17.4	11	3.05	7.91	-4.92	-5.66	6.36	1.47	24.4	9.55	15.4	2.21	inhibition at 10 µM (EKVX): 9.08%
